Reference: publication PMC5444383 (Biochemistry, 2016)
Read-outs that look alike come from different tables or passages of the source.

What was measured:
[1] = target: T1, ethylene-forming enzyme (EFE) (Pseudomonas savastanoi, UniProt P32021); test: anaerobic UV-vis difference titration; assay type: binding
[2] = target: T1, ethylene-forming enzyme (EFE); test: anaerobic UV-vis difference titration; assay type: binding; remark: listed apart in the source
O=C(O)CCCC(=O)C(=O)O = test: purified protein; conditions: Fe(II) active-site Fe(II) (MLCT transition)

T1 sequence (P32021 whole entry): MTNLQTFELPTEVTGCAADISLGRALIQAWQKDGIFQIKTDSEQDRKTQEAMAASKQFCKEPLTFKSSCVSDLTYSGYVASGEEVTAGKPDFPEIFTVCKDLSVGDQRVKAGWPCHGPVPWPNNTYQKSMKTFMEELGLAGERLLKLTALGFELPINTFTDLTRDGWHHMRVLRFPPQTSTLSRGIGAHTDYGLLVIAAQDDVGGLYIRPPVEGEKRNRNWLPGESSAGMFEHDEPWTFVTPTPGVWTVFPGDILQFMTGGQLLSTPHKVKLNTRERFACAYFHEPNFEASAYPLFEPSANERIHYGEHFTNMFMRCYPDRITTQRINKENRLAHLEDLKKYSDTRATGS

Compound: O=C(O)CCC(=O)C(=O)O [2OG, 2-oxoglutarate]
- Kd [1]: 25 ± 7 µM

Compound: N=C(N)NCCC[C@H](N)C(=O)O [L-Arg, L-arginine]
- Kd [2]: 34 ± 25 µM

Compound: ethylene-forming enzyme (EFE) (Pseudomonas savastanoi pv. phaseolicola)
- Km (O=C(O)CCCC(=O)C(=O)O): 31 ± 4 µM
- kcat (O=C(O)CCCC(=O)C(=O)O): 0.00417 ± 0.000333 s⁻¹
